This assay has as its target T1, BRM (Homo sapiens, UniProt P51531).
T1 construct: Western Blot Screen of BRM Degradation in SW1573 Cells; endogenous in cells; host or cells: SW1573 cells
Briefly: BRM degradation (Dmax and DC50) in SW1573 cells, Western blot screen / In-Cell Western screen. It is filed as cell-based. The note with it: overnight (18-20 hours) treatment; for Dmax: read-out: Dmax (%)** (% degraded). In short, it runs like this: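 Dmax and DC50 were derived from BRM levels normalised to an alpha-tubulin control, measured by chemiluminescent Western blotting of lysates or by PFA-fixed In-Cell Western on LI-COR Odyssey. SW1573 cells received compound overnight (18–20 h, 0.1% DMSO final).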
On the technique in general: A western blot detects proteins with antibodies after separation by electrophoresis.

T1 sequence (P51531 whole entry): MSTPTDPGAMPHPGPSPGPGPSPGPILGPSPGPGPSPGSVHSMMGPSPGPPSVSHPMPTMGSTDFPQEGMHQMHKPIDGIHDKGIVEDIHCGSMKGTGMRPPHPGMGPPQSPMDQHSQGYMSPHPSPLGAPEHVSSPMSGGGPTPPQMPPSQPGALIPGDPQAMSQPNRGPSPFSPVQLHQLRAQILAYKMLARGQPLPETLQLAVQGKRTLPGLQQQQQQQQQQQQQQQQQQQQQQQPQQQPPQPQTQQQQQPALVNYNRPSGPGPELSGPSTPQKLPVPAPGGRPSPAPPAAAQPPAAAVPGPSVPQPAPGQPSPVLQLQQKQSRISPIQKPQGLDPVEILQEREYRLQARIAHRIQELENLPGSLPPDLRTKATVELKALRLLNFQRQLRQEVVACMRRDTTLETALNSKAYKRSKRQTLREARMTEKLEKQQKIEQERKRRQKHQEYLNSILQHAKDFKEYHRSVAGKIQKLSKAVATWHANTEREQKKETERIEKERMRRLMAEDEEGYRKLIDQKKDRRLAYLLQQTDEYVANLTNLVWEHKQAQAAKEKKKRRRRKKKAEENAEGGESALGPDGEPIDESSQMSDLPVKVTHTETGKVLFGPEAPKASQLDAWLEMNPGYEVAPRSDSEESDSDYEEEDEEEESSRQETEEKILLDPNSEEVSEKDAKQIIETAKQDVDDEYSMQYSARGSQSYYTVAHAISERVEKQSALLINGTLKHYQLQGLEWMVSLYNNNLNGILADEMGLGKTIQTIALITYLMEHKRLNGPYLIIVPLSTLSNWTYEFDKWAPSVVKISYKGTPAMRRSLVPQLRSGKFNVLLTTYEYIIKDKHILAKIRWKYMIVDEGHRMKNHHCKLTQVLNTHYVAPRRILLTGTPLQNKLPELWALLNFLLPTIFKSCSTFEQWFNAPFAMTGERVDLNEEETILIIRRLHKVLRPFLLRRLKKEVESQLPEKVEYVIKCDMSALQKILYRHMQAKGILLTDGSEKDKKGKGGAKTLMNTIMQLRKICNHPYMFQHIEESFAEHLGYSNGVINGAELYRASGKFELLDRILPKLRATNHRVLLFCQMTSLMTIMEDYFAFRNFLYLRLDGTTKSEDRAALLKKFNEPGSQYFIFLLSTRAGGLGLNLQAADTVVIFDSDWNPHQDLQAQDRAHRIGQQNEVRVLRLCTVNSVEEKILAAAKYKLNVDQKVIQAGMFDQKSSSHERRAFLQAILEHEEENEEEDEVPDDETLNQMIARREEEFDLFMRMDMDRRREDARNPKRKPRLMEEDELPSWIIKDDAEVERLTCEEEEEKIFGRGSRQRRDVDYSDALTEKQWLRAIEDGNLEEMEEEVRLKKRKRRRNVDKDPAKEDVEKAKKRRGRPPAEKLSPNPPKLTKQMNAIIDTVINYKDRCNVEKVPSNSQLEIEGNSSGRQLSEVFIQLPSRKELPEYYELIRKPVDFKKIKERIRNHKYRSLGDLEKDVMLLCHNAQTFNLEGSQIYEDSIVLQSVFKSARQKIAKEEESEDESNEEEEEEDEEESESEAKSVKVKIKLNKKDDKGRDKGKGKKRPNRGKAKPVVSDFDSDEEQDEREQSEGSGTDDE

Compound `CC(C)[C@@H](C(=O)N1C[C@H](O)C[C@H]1C(=O)N[C@@H](C)c1ccc(-c2scnc2C#CCOCCOCCOCCOCCOc2cc(N3C4CCC3CN(c3cc(-c5ccccc5O)nnc3N)C4)ccn2)cc1)N1Cc2ccccc2C1=O` [Compound 83, (2S,4R)-N-[(1S)-1-[4-(4-{1-[(4-{3-[3-amino-6-(2-hydroxyphenyl)pyridazin-4-yl]-3,8-diazabicyclo[3.2.1]octan-8-yl}pyridin-2-yl)oxy]-3,6,9,12-tetraoxapentadec-14-yn-15-yl}-1,3-thiazol-5-yl)phenyl]ethyl]-4-hydroxy-1-[(2S)-3-methyl-2-(1-oxo-2,3-dihydro-1H-isoindol-2-yl)butanoyl]pyrrolidine-2-carboxamide] returned a 50% degradation concentration (DC50) not below 30 nM.
For `CC(C)[C@@H](C(=O)N1C[C@H](O)C[C@H]1C(=O)N[C@@H](C)c1ccc(-c2ccnn2C)cc1)c1cc(N2CCC(CN3CCC(O[C@H]4C[C@H](N5CCC(C(C)n6ncc(C#Cc7cc(-c8ccccc8O)nnc7N)c6F)CC5)C4)CC3)CC2)no1` (stereo partly drawn) [Compound 84, (2S,4R)-4-hydroxy-N-[(1S)-1-[4-(1-methyl-1H-pyrazol-5-yl)phenyl]ethyl]-1-[(2R)-3-methyl-2-{3-[4-({4-[(1r,3r)-3-{4-[1-(4-{2-[3-amino-6-(2-hydroxyphenyl)pyridazin-4-yl]ethynyl}-5-fluoro-1H-pyrazol-1-yl)ethyl]piperidin-1-yl}cyclobutoxy]piperidin-1-yl}methyl)piperidin-1-yl]-1,2-oxazol-5-yl}butanoyl]pyrrolidine-2-carboxamide], the half-maximal degradation concentration (DC50) was less than 2.5 nM and the maximal degradation (Dmax) was more than 75%.
Take `Cc1ncsc1-c1ccc([C@H](C)NC(=O)[C@@H]2C[C@@H](O)CN2C(=O)[C@@H](c2cc(N3CCC(CN4CCC(O[C@H]5C[C@H](N6CCC(C(C)c7cn(-c8cc(-c9ccccc9O)nnc8N)cn7)CC6)C5)CC4)CC3)no2)C(C)C)cc1` (stereo partly drawn) [Compound 85, (2S,4R)-4-hydroxy-N-[(1S)-1-[4-(4-methyl-1,3-thiazol-5-yl)phenyl]ethyl]-1-[(2R)-3-methyl-2-{3-[4-({4-[(1r,3r)-3-[4-(1-{1-[3-amino-6-(2-hydroxyphenyl)pyridazin-4-yl]-1H-imidazol-4-yl}ethyl)piperidin-1-yl]cyclobutoxy]piperidin-1-yl}methyl)piperidin-1-yl]-1,2-oxazol-5-yl}butanoyl]pyrrolidine-2-carboxamide]: the half-maximal degradation concentration (DC50) was not below 30 nM.
For the compound `CC(C)[C@H](C(=O)N1C[C@H](O)C[C@H]1C(=O)N[C@@H](C)c1ccc(-c2scnc2C#CCOCCOCCOc2cc(N3C4CCC3CN(c3cc(-c5ccccc5O)nnc3N)C4)ccn2)cc1)N1Cc2ccccc2C1=O` [Compound 86], the DC50 was 2.5 to 10 nM and the Dmax is more than 75%.
For `Cc1ncsc1-c1ccc([C@H](C)NC(=O)[C@@H]2C[C@@H](O)CN2C(=O)[C@@H](c2cc(N3CCC(CN4CCC5(CC4)CC(N4CCO[C@H](C(C)n6cc(-c7cc(-c8ccccc8O)nnc7N)cn6)C4)C5)CC3)no2)C(C)C)cc1` (stereo partly drawn) [Compound 88, (2S,4R)-1-[(2R)-2-{3-[4-({2-[(2S)-2-(1-(4-[3-amino-6-(2-hydroxyphenyl)pyridazin-4-yl]-1H-pyrazol-1-yl}ethyl)morpholin-4-yl]-7-azaspiro[3.5]nonan-7-yl}methyl)piperidin-1-yl]-1,2-oxazol-5-yl}-3-methylbutanoyl]-4-hydroxy-N-[(1S)-1-[4-(4-methyl-1,3-thiazol-5-yl)phenyl]ethyl]pyrrolidine-2-carboxamide], in that order: less than 2.5 nM and more than 75%.
Consider `Cc1ncsc1-c1ccc([C@H](C)NC(=O)[C@@H]2C[C@@H](O)CN2C(=O)[C@@H](c2cc(N3CCC(CN4CCC5(CC4)CC(N4CCO[C@@H](C(C)n6cc(-c7cc(-c8ccccc8O)nnc7N)cn6)C4)C5)CC3)no2)C(C)C)cc1` (stereo partly drawn) [Compound 89, (2S,4R)-1-[(2R)-2-{3-[4-({2-[(2R)-2-(1-{4-[3-amino-6-(2-hydroxyphenyl)pyridazin-4-yl]-1H-pyrazol-1-yl}ethyl)morpholin-4-yl]-7-azaspiro[3.5]nonan-7-yl}methyl)piperidin-1-yl]-1,2-oxazol-5-yl}-3-methylbutanoyl]-4-hydroxy-N-[(1S)-1-[4-(4-methyl-1,3-thiazol-5-yl)phenyl]ethyl]pyrrolidine-2-carboxamide], for which the DC50 is less than 2.5 nM and the maximal degradation (Dmax) is more than 75%.
`Cc1nccn1-c1ccc([C@H](C)NC(=O)[C@@H]2C[C@@H](O)CN2C(=O)[C@H](c2cc(N3CCC(CN4CCC(O[C@H]5C[C@H](N6CCC(C(C)n7cc(C#Cc8cc(-c9ccccc9O)nnc8N)cn7)CC6)C5)CC4)CC3)no2)C(C)C)cc1` (stereo partly drawn) [Compound 90, (2S,4R)-4-hydroxy-N-[(1S)-1-[4-(2-methyl-1H-imidazol-1-yl)phenyl]ethyl]-1-[(2S)-3-methyl-2-{3-[4-({4-[(1r,3r)-3-{4-[1-(4-{2-[3-amino-6-(2-hydroxyphenyl)pyridazin-4-yl]ethynyl}-1H-pyrazol-1-yl)ethyl]piperidin-1-yl}cyclobutoxy]piperidin-1-yl}methyl)piperidin-1-yl]-1,2-oxazol-5-yl}butanoyl]pyrrolidine-2-carboxamide] had a DC50 not below 30 nM.
For the compound `Cc1nccn1-c1ccc([C@H](C)NC(=O)[C@@H]2C[C@@H](O)CN2C(=O)[C@@H](c2cc(N3CCC(CN4CCC(O[C@H]5C[C@H](N6CCC(C(C)n7cc(C#Cc8cc(-c9ccccc9O)nnc8N)cn7)CC6)C5)CC4)CC3)no2)C(C)C)cc1` (stereo partly drawn) [Compound 91, (2S,4R)-4-hydroxy-N-[(1S)-1-[4-(2-methyl-1H-imidazol-1-yl)phenyl]ethyl]-1-[(2R)-3-methyl-2-{3-[4-({4-[(1r,3r)-3-{4-[1-(4-{2-[3-amino-6-(2-hydroxyphenyl)pyridazin-4-yl]ethynyl}-1H-pyrazol-1-yl)ethyl]piperidin-1-yl}cyclobutoxy]piperidin-1-yl}methyl)piperidin-1-yl]-1,2-oxazol-5-yl}butanoyl]pyrrolidine-2-carboxamide], the DC50 is less than 2.5 nM and the greatest degradation seen (Dmax) was more than 75%.
In turn, `CC(C)[C@H](C(=O)N1C[C@H](O)C[C@H]1C(=O)N[C@@H](C)c1ccc(C#N)cc1)c1cc(O[C@H]2C[C@H](C(C)(C)N3CCC(O[C@H]4C[C@H](Oc5cc(N6C7CCC6CN(c6cc(-c8ccccc8O)nnc6N)C7)ccn5)C4)CC3)C2)no1` [Compound 93, (2S,4R)-N-[(1S)-1-(4-cyanophenyl)ethyl]-4-hydroxy-1-[(2S)-3-methyl-2-{3-[(1r,3r)-3-(2-{4-[(1r,3r)-3-[(4-{3-[3-amino-6-(2-hydroxyphenyl)pyridazin-4-yl]-3,8-diazabicyclo[3.2.1]octan-8-yl}pyridin-2-yl)oxy]cyclobutoxy]piperidin-1-yl}propan-2-yl)cyclobutoxy]-1,2-oxazol-5-yl}butanoyl]pyrrolidine-2-carboxamide] yielded a half-maximal degradation concentration (DC50) not below 30 nM.
Take `Cc1ncsc1-c1ccc([C@H](C)NC(=O)[C@@H]2C[C@@H](O)CN2C(=O)[C@@H](c2cc(N3CCC(CN4CCC5(CC4)CC(N4CCO[C@H](C(C)(C)N6C7CCC6CN(c6cc(-c8ccccc8O)nnc6N)C7)C4)C5)CC3)no2)C(C)C)cc1` [Compound 94, (2S,4R)-1-[(2R)-2-{3-[4-({2-[(2S)-2-(2-{3-[3-amino-6-(2-hydroxyphenyl)pyridazin-4-yl]-3,8-diazabicyclo[3.2.1]octan-8-yl}propan-2-yl)morpholin-4-yl]-7-azaspiro[3.5]nonan-7-yl}methyl)piperidin-1-yl]-1,2-oxazol-5-yl}-3-methylbutanoyl]-4-hydroxy-N-[(1S)-1-[4-(4-methyl-1,3-thiazol-5-yl)phenyl]ethyl]pyrrolidine-2-carboxamide]: the 50% degradation concentration (DC50) lay within 2.5 to 10 nM and the Dmax was more than 75%.
In the case of `Cc1ncsc1-c1ccc([C@H](C)NC(=O)[C@@H]2C[C@@H](O)CN2C(=O)[C@@H](c2cc(N3CCC(CN4CCC5(CC4)CC(N4CCO[C@@H](C(C)(C)N6C7CCC6CN(c6cc(-c8ccccc8O)nnc6N)C7)C4)C5)CC3)no2)C(C)C)cc1` [Compound 95, (2S,4R)-1-[(2R)-2-{3-[4-({2-[(2R)-2-(2-{3-[3-amino-6-(2-hydroxyphenyl)pyridazin-4-yl]-3,8-diazabicyclo[3.2.1]octan-8-yl}propan-2-yl)morpholin-4-yl]-7-azaspiro[3.5]nonan-7-yl}methyl)piperidin-1-yl]-1,2-oxazol-5-yl}-3-methylbutanoyl]-4-hydroxy-N-[(1S)-1-[4-(4-methyl-1,3-thiazol-5-yl)phenyl]ethyl]pyrrolidine-2-carboxamide], the DC50 is 2.5 to 10 nM and the Dmax is more than 75%.
`Cc1ncsc1-c1ccc([C@H](C)NC(=O)[C@@H]2C[C@@H](O)CN2C(=O)[C@@H](c2cc(N3CCC(CN4CCC5(CC4)CC(N4CCO[C@H]([C@H](C)n6cc(C#Cc7cc(-c8ccccc8O)nnc7N)cn6)C4)C5)CC3)no2)C(C)C)cc1` [Compound 96, (2S,4R)-1-[(2R)-2-{3-[4-({2-[(2S)-2-[(1S)-1-(4-{2-[3-amino-6-(2-hydroxyphenyl)pyridazin-4-yl]ethynyl}-1H-pyrazol-1-yl)ethyl]morpholin-4-yl]-7-azaspiro[3.5]nonan-7-yl}methyl)piperidin-1-yl]-1,2-oxazol-5-yl}-3-methylbutanoyl]-4-hydroxy-N-[(1S)-1-[4-(4-methyl-1,3-thiazol-5-yl)phenyl]ethyl]pyrrolidine-2-carboxamide]: the DC50 is less than 2.5 nM and the maximal degradation (Dmax) is more than 75%.
The corresponding values for `Cc1ncsc1-c1ccc([C@H](C)NC(=O)[C@@H]2C[C@@H](O)CN2C(=O)[C@@H](c2cc(N3CCC(CN4CCC5(CC4)CC(N4CCO[C@@H]([C@H](C)n6cc(C#Cc7cc(-c8ccccc8O)nnc7N)cn6)C4)C5)CC3)no2)C(C)C)cc1` [Compound 97, (2S,4R)-1-[(2R)-2-{3-[4-({2-[(2R)-2-[(1S)-1-(4-{2-[3-amino-6-(2-hydroxyphenyl)pyridazin-4-yl]ethynyl}-1H-pyrazol-1-yl)ethyl]morpholin-4-yl]-7-azaspiro[3.5]nonan-7-yl}methyl)piperidin-1-yl]-1,2-oxazol-5-yl}-3-methylbutanoyl]-4-hydroxy-N-[(1S)-1-[4-(4-methyl-1,3-thiazol-5-yl)phenyl]ethyl]pyrrolidine-2-carboxamide] are less than 2.5 nM and more than 75%.

One may read the DC50 as the concentration giving 50% degradation. A word on the Dmax: it is the largest share of the target that was removed.

The values are drawn from patent US20250059198A1, “BRM DEGRADING COMPOUNDS AND ASSOCIATED METHODS OF USE” (Arvinas Operations, Inc., priority 2021, published 2025).
